ChEMBL document CHEMBL2375337, “Synthesis and anti-H5N1 activity of chiral gossypol derivatives and its analogs implicated by a viral entry blocking mechanism” (Bioorg Med Chem Lett, 2013)
Values joined by “and” are separate entries in the source; they are usually repeats but may differ in a detail not shown here. Equal values may be shown once. Active and inactive are the calls of the source. The calls are words filed in the database; no cut-off is given here.

Key:
[1] = Selectivity index, ratio of CC50 for MDCK cells to IC50 for Influenza A virus (A/Vietnam/1194/2004(H5N1)); format: functional
MDCK = experiment: (§1) Cytotoxicity against MDCK cells by MTT assay; format: cell-based, Canis lupus familiaris; conditions: dog, mdck
Influenza A virus [2] = experiment: Antiviral activity against Influenza A virus (A/Vietnam/1194/2004(H5N1)) infected in MDCK cells by plaque reduction assay; format: functional, organism-based
[3] = as §1; format: cell-based, Canis lupus familiaris; conditions: dog, MDCK cells
H5N1 subtype [4] = experiment: Inhibition of H5N1 subtype neuraminidase up to 20 uM
H5N1 subtype [5] = experiment: Inhibition of H5N1 subtype hemagglutinin adsorption into chicken RBC at 100 ug/mL
H5N1 subtype [6] = experiment: Antiviral activity against H5N1 subtype infected in MDCK cells; format: functional, organism-based; conditions: Influenza A virus
Influenza A virus [7] = experiment: Antiviral activity against Influenza A virus (A/Vietnam/1194/2004(H5N1)) infected in MDCK cells assessed as inhibition of viral entry at 20 uM treated 2 hrs post infection; format: functional, organism-based
Influenza A virus [8] = experiment: Antiviral activity against Influenza A virus (A/Vietnam/1194/2004(H5N1)) infected in MDCK cells assessed as inhibition of viral entry at 20 uM treated at the time of infection; format: functional, organism-based
[9] = Selectivity index, ratio of cytotoxicity against MDCK cells to antiviral activity against H5N1 subtype; format: toxicity, cell-based; conditions: dog, read-out: Selectivity Index
Influenza A virus [10] = experiment: Antiviral activity against Influenza A virus (A/Vietnam/1194/2004(H5N1)) infected in MDCK cells assessed as inhibition of viral entry at 20 uM treated 2 hrs prior to infection; format: functional, organism-based
[11] = Influenza A virus, MDCK, read-out: IC50

SMILES | Ratio CC50/IC50 [1] | CC50 (MDCK) | IC50 (Influenza A virus [2]; mdck, read-out: IC50) | CC50 [3] | other results
Cc1cc2c(c(O)c1-c1c(C)cc3c(c1O)/C(=C/N[C@H](C(=O)[O-])C(C)C)C(=O)C(O)=C3C(C)C)/C(=C/N[C@H](C(=O)[O-])C(C)C)C(=O)C(O)=C2C(C)C.[Na+].[Na+] (stereo in doubt; (+)-6b) | 34.5 | 43.8 µM | 1.27 µM |  | 
Cc1cc2c(c(O)c1-c1c(C)cc3c(c1O)/C(=C/NC(C)(C)C(=O)[O-])C(=O)C(O)=C3C(C)C)/C(=C/NC(C)(C)C(=O)[O-])C(=O)C(O)=C2C(C)C.[Na+].[Na+] (stereo in doubt; (+)-9b) | 51.11 | 45.5 µM | 0.89 µM |  | 
Cc1cc2c(c(O)c1-c1c(C)cc3c(c1O)/C(=C/N[C@@H](Cc1c[nH]c4ccccc14)C(=O)[O-])C(=O)C(O)=C3C(C)C)/C(=C/N[C@@H](Cc1c[nH]c3ccccc13)C(=O)[O-])C(=O)C(O)=C2C(C)C.[Na+].[Na+] (stereo in doubt; (+)-7b) | 142.6 | 35.6 µM | 0.25 µM |  | 
Cc1cc2c(c(O)c1-c1c(C)cc3c(c1O)/C(=C/NC(C)(C)C(=O)[O-])C(=O)C(O)=C3C(C)C)/C(=C/NC(C)(C)C(=O)[O-])C(=O)C(O)=C2C(C)C.[Na+].[Na+] (stereo in doubt; (-)-9a) | 31.96 |  |  | 50.5 µM | IC50 (Influenza A virus [2]; [11]): 1.58 µM
Cc1cc2c(C(C)C)c(O)c(O)c(C(=O)O)c2c(O)c1-c1c(C)cc2c(C(C)C)c(O)c(O)c(C(=O)O)c2c1O | 18.62 and 15.82 | 36.3 µM | 1.95 µM | 60.6 µM | inhibition (H5N1 subtype [4]): inactive; inhibition (H5N1 subtype [5]): inactive; IC50 (H5N1 subtype [6]): 2.37 µM; inhibition (Influenza A virus [7]): inactive; IC50 (Influenza A virus [2]; [11]): 3.83 µM; inhibition (Influenza A virus [8]): inactive; selectivity ratio [9]: 10.5; inhibition (Influenza A virus [10]): inactive
NC12CC3CC(CC(C3)C1)C2 [AMANTADINE] | >57.39 |  |  | > 220 µM | IC50 (H5N1 subtype [6]): 3.84 µM; IC50 (Influenza A virus [2]; [11]): 3.84 µM; selectivity ratio [9]: > 57.4
CC[C@H](C)[C@H](N/C=C1\C(=O)C(O)=C(C(C)C)c2cc(C)c(-c3c(C)cc4c(c3O)/C(=C/N[C@H](C(=O)[O-])[C@@H](C)CC)C(=O)C(O)=C4C(C)C)c(O)c21)C(=O)[O-].[Na+].[Na+] (stereo in doubt; (-)-8a) | >58.68 |  | 0.72 µM | > 42.2 µM | 
Cc1cc2c(c(O)c1-c1c(C)cc3c(c1O)/C(=C/N[C@@H](Cc1c[nH]c4ccccc14)C(=O)[O-])C(=O)C(O)=C3C(C)C)/C(=C/N[C@@H](Cc1c[nH]c3ccccc13)C(=O)[O-])C(=O)C(O)=C2C(C)C.[Na+].[Na+] (stereo in doubt; (-)-7a) | >67.26 |  | 0.53 µM | > 35.6 µM | 
CC(=O)Oc1c(OC(C)=O)c(C(=O)O)c2c(OC(C)=O)c(-c3c(C)cc4c(C(C)C)c(OC(C)=O)c(OC(C)=O)c(C(=O)O)c4c3OC(C)=O)c(C)cc2c1C(C)C | 18.22 and 12.01 |  | 2.28 µM | 41.5 µM | IC50 (H5N1 subtype [6]): 2.98 µM; IC50 (Influenza A virus [2]; [11]): 3.46 µM; selectivity ratio [9]: > 8.7
Cc1cc2c(c(O)c1-c1c(C)cc3c(c1O)/C(=C/N[C@@H]1[C@@H](O)[C@H](O)[C@@H](CO)O[C@H]1O)C(=O)C(O)=C3C(C)C)/C(=C/N[C@@H]1[C@@H](O)[C@H](O)[C@@H](CO)O[C@H]1O)C(=O)C(O)=C2C(C)C |  |  |  | 21.8 µM | IC50 (Influenza A virus [2]; mdck): Not Active
COc1c(OC)c(C(=O)O)c2c(OC)c(-c3c(C)cc4c(C(C)C)c(OC)c(OC)c(C(=O)O)c4c3OC)c(C)cc2c1C(C)C |  |  |  |  | IC50 (H5N1 subtype [6]): 158 µM; selectivity ratio [9]: > 0.33
COc1c(OC)c(C=O)c2c(OC)c(-c3c(C)cc4c(C(C)C)c(OC)c(OC)c(C=O)c4c3OC)c(C)cc2c1C(C)C |  |  |  |  | IC50 (H5N1 subtype [6]): 103 µM; selectivity ratio [9]: > 0.54
COC(=O)[C@H](Cc1c[nH]c2ccccc12)N/C=C1\C(=O)C(O)=C(C(C)C)c2cc(C)c(-c3c(C)cc4c(c3O)/C(=C/N[C@@H](Cc3c[nH]c5ccccc35)C(=O)OC)C(=O)C(O)=C4C(C)C)c(O)c21 (stereo in doubt; (+)-11b) | 22.68 | 36.3 µM | 1.6 µM |  | 
CC[C@H](C)[C@H](N/C=C1\C(=O)C(O)=C(C(C)C)c2cc(C)c(-c3c(C)cc4c(c3O)/C(=C/N[C@H](C(=O)[O-])[C@@H](C)CC)C(=O)C(O)=C4C(C)C)c(O)c21)C(=O)[O-].[Na+].[Na+] (stereo in doubt; (+)-8b) | 132.03 | 42.2 µM | 0.32 µM |  | 
Cc1cc2c(c(O)c1-c1c(C)cc3c(c1O)/C(=C/N[C@@H](C)C(=O)O)C(=O)C(O)=C3C(C)C)/C(=C/N[C@@H](C)C(=O)O)C(=O)C(O)=C2C(C)C (stereo in doubt; (-)-5a) |  |  |  |  | inhibition (H5N1 subtype [4]): inactive; inhibition (H5N1 subtype [5]): inactive; inhibition (Influenza A virus [7]): inactive; inhibition (Influenza A virus [8]): inactive; inhibition (Influenza A virus [10]): inactive
COC(=O)[C@H](Cc1c[nH]c2ccccc12)N/C=C1\C(=O)C(O)=C(C(C)C)c2cc(C)c(-c3c(C)cc4c(c3O)/C(=C/N[C@@H](Cc3c[nH]c5ccccc35)C(=O)OC)C(=O)C(O)=C4C(C)C)c(O)c21 (stereo in doubt; (-)-11a) | >10.77 |  | 3.37 µM | > 36.3 µM | 
Cc1cc2c(c(O)c1-c1c(C)cc3c(c1O)/C(=C/N[C@@H](C)C(=O)[O-])C(=O)C(O)=C3C(C)C)/C(=C/N[C@@H](C)C(=O)[O-])C(=O)C(O)=C2C(C)C.[Na+].[Na+] (stereo in doubt; (+)-5b) | 100.72 | 47.3 µM | 0.47 µM |  | 
COC(=O)[C@H](C)N/C=C1\C(=O)C(O)=C(C(C)C)c2cc(C)c(-c3c(C)cc4c(c3O)/C(=C/N[C@@H](C)C(=O)OC)C(=O)C(O)=C4C(C)C)c(O)c21 (stereo in doubt; (-)-10a) | >25.2 |  | 1.92 µM | > 48.4 µM | 
Cc1cc2c(c(O)c1-c1c(C)cc3c(c1O)/C(=C/N[C@@H](C)C(=O)O)C(=O)C(O)=C3C(C)C)/C(=C/N[C@@H](C)C(=O)O)C(=O)C(O)=C2C(C)C (stereo in doubt; (+)-5b) |  |  |  |  | inhibition (H5N1 subtype [4]): inactive; inhibition (H5N1 subtype [5]): inactive; inhibition (Influenza A virus [7]): inactive; inhibition (Influenza A virus [8]): inactive; inhibition (Influenza A virus [10]): inactive
Cc1cc2c(c(O)c1-c1c(C)cc3c(c1O)/C(=C/N[C@@H](C)C(=O)[O-])C(=O)C(O)=C3C(C)C)/C(=C/N[C@@H](C)C(=O)[O-])C(=O)C(O)=C2C(C)C.[Na+].[Na+] (stereo in doubt; (-)-5a) | >44.24 |  | 1.07 µM | > 47.3 µM | 
COC(=O)[C@H](C)N/C=C1\C(=O)C(O)=C(C(C)C)c2cc(C)c(-c3c(C)cc4c(c3O)/C(=C/N[C@@H](C)C(=O)OC)C(=O)C(O)=C4C(C)C)c(O)c21 (stereo in doubt; (+)-10b) | 50.94 | 48.4 µM | 0.95 µM |  | 
Cc1cc2c(c(O)c1-c1c(C)cc3c(c1O)/C(=C/N[C@H](C(=O)[O-])C(C)C)C(=O)C(O)=C3C(C)C)/C(=C/N[C@H](C(=O)[O-])C(C)C)C(=O)C(O)=C2C(C)C.[Na+].[Na+] (stereo in doubt; (-)-6a) | >16.66 |  | 2.63 µM | > 43.8 µM | 
Cc1cc2c(C(C)C)c(O)c(O)c(C=O)c2c(O)c1-c1c(C)cc2c(C(C)C)c(O)c(O)c(C=O)c2c1O [GOSSYPOL] |  |  | 3.82 µM and 1.87 µM | 35.4 µM | inhibition (H5N1 subtype [4]): inactive; inhibition (H5N1 subtype [5]): inactive; IC50 (H5N1 subtype [6]): 2.14 µM; inhibition (Influenza A virus [7]): inactive; inhibition (Influenza A virus [8]): inactive; selectivity ratio [9]: 1.65; inhibition (Influenza A virus [10]): inactive
